Values of other authors as cited in article PMC9881854 (bioRxiv, 2023).

Tested on: mTOR

CO[C@H]1C[C@@H]2CC[C@@H](C)[C@@](O)(O2)C(=O)C(=O)N2CCCC[C@H]2C(=O)O[C@H]([C@H](C)C[C@@H]2CC[C@@H](O)[C@H](OC)C2)CC(=O)[C@H](C)/C=C(\C)[C@@H](O)[C@@H](OC)C(=O)[C@H](C)C[C@H](C)/C=C/C=C/C=C/1C [rapamycin]
binding of rapamycin by itself to mTOR: weak micromolar binder
